Reference: the supplement of paper PMC13380429

Key:
Conditions in all cases: 72 h
Calu-3 [1] = assay: drug sensitivity score (DSS) for viability; higher = more toxic; extreme values may be limits of the assay
Caco-2 [2] = assay: as above
U2OS [3] = assay: as above
HepG2 [4] = assay: as above
Vero E6 [5] = assay: as above
Calu-3 [6] = assay: cell viability relative to DMSO; higher = less toxic
Caco-2 [7] = assay: as above
U2OS [8] = assay: as above
HepG2 [9] = assay: as above
Vero E6 [10] = assay: as above
Calu-3 [11] = assay: relative viability EC50 (midpoint between 100% and the lowest measured viability); higher = less toxic
Caco-2 [12] = assay: as above
U2OS [13] = assay: as above
HepG2 [14] = assay: as above
Vero E6 [15] = assay: as above

| Compound | drug sensitivity score (Calu-3 [1]) | drug sensitivity score (Caco-2 [2]) | drug sensitivity score (U2OS [3]) | drug sensitivity score (HepG2 [4]) | drug sensitivity score (Vero E6 [5]) | cell viability (Calu-3 [6]; 1 nM) [%] | cell viability (Calu-3 [6]; 10 nM) [%] | cell viability (Calu-3 [6]; 100 nM) [%] | cell viability (Calu-3 [6]; 1000 nM) [%] | cell viability (Calu-3 [6]; 10000 nM) [%] | cell viability (Caco-2 [7]; 1 nM) [%] | cell viability (Caco-2 [7]; 10 nM) [%] | cell viability (Caco-2 [7]; 100 nM) [%] | cell viability (Caco-2 [7]; 1000 nM) [%] | cell viability (Caco-2 [7]; 10000 nM) [%] | cell viability (U2OS [8]; 1 nM) [%] | cell viability (U2OS [8]; 10 nM) [%] | cell viability (U2OS [8]; 100 nM) [%] | cell viability (U2OS [8]; 1000 nM) [%] | cell viability (U2OS [8]; 10000 nM) [%] | cell viability (HepG2 [9]; 1 nM) [%] | cell viability (HepG2 [9]; 10 nM) [%] | cell viability (HepG2 [9]; 100 nM) [%] | cell viability (HepG2 [9]; 1000 nM) [%] | cell viability (HepG2 [9]; 10000 nM) [%] | cell viability (Vero E6 [10]; 1 nM) [%] | cell viability (Vero E6 [10]; 10 nM) [%] | cell viability (Vero E6 [10]; 100 nM) [%] | cell viability (Vero E6 [10]; 1000 nM) [%] | cell viability (Vero E6 [10]; 10000 nM) [%] | relative viability EC50 (Calu-3 [11]) [µM] | relative viability EC50 (Caco-2 [12]) [µM] | relative viability EC50 (U2OS [13]) [µM] | relative viability EC50 (HepG2 [14]) [µM] | relative viability EC50 (Vero E6 [15]) [µM] |
| --- | --- | --- | --- | --- | --- | --- | --- | --- | --- | --- | --- | --- | --- | --- | --- | --- | --- | --- | --- | --- | --- | --- | --- | --- | --- | --- | --- | --- | --- | --- | --- | --- | --- | --- | --- |
| CCN(CCO)CCCC(C)Nc1ccnc2cc(Cl)ccc12 (stereo not given) [hydroxychloroquine] | 0 | 0.1 | 0 | 0 | 0 | 94.1 | 105 | 86.8 | 109 | 95.9 | 103 | 116 | 100 | 102 | 85.4 | 97.1 | 98.1 | 93.4 | 96.8 | 89.4 | 101 | 95.9 | 96.8 | 94.6 | 89.6 | 101 | 95.4 | 108 | 93.9 | 96.8 | > 10 | > 10 | > 10 | > 10 | > 10 |
| O=C1NC(c2cccc([N+](=O)[O-])c2)=CCN1c1ccccc1O [icilin] | 0 | 0 | 0 | 0 | 0 | 97.4 | 94.1 | 93.7 | 108 | 108 | 93.4 | 102 | 97.6 | 99.2 | 100 | 95.5 | 103 | 98.3 | 103 | 104 | 94.3 | 93.4 | 103 | 98 | 101 | 91.9 | 94.3 | 94 | 94.9 | 106 | > 10 | > 10 | > 10 | > 10 | > 10 |
| Nc1c2c(nc3c1CCC3)CCCC2 [ipidacrine] | 0 | 0 | 0 | 0 | 0 | 99.2 | 99.9 | 88.6 | 90.9 | 100 | 84.5 | 96.4 | 96.3 | 91.8 | 106 | 96.8 | 93.4 | 103 | 94.8 | 99.4 | 101 | 99.9 | 104 | 94.6 | 109 | 96.5 | 96.4 | 95.8 | 94.7 | 108 | > 10 | > 10 | > 10 | > 10 | > 10 |
| CC[C@H](C)[C@H](N)C(=O)O [isoleucine] | 0 | 0 | 0 | 0 | 0 | 101 | 89.1 | 91.1 | 99.9 | 103 | 88.4 | 100 | 99.3 | 94.5 | 108 | 101 | 96.8 | 96.3 | 107 | 106 | 99.5 | 95.6 | 104 | 90.8 | 97.4 | 92.1 | 97.3 | 96.4 | 95.4 | 106 | > 10 | > 10 | > 10 | > 10 | > 10 |
| CCCCCCCCCCCCCCCC(=O)OC(C)C [isopropyl-palmitate] | 0 | 0 | 0 | 0 | 0 | 106 | 96.6 | 94.3 | 93.8 | 101 | 101 | 102 | 109 | 90.8 | 90.4 | 102 | 95.9 | 97.5 | 93.2 | 97.7 | 92.2 | 102 | 99 | 94.8 | 95.8 | 96 | 98.8 | 99 | 98.8 | 97.2 | > 10 | > 10 | > 10 | > 10 | > 10 |
| CCN(CC)CCNC(=O)COc1ccc(OC)cc1 [mefexamide] | 0 | 0.1 | 0 | 0 | 0 | 108 | 106 | 109 | 106 | 98.5 | 93 | 98.3 | 81.7 | 81.9 | 102 | 97.9 | 99.3 | 104 | 98 | 102 | 114 | 73.9 | 92.7 | 114 | 119 | 95.1 | 106 | 95.4 | 96.8 | 108 | > 10 | > 10 | > 10 | > 10 | > 10 |
| CC(C)S(=O)(=O)NC[C@H](C)c1ccc(-c2ccc(CCNS(C)(=O)=O)cc2)cc1 [mibampator] | 0.2 | 0.3 | 0 | 5.7 | 0 | 101 | 107 | 99.9 | 99.9 | 86.2 | 96.4 | 100 | 101 | 103 | 83 | 99.1 | 102 | 100 | 104 | 94.1 | 107 | 105 | 101 | 88.2 | 32.6 | 90.8 | 98 | 95.1 | 94 | 95.6 | > 10 | > 10 | > 10 | 1.85 | > 10 |
| COc1cc2c(cc1OC)[C@@H](Cc1cc(OC)c(OC)c(OC)c1)[N+](C)(CCCOC(=O)CC/C=C/CCC(=O)OCCC[N+]1(C)CCc3cc(OC)c(OC)cc3[C@H]1Cc1cc(OC)c(OC)c(OC)c1)CC2 (stereo not given in full) [mivacurium] | 0 | 0 | 0 | 0 | 0 | 112 | 97.6 | 101 | 89.7 | 94 | 107 | 98.9 | 109 | 123 | 94.5 | 102 | 99.8 | 98.6 | 96.3 | 100 | 101 | 95.2 | 99.4 | 84.3 | 97.7 | 106 | 112 | 105 | 97.7 | 93 | > 10 | > 10 | > 10 | > 10 | > 10 |
| CCCN(CCC)C(=O)C1=Cc2ccc(-c3ccc(C(=O)N4CCCC4)cc3)cc2N=C(N)C1 [motolimod] | 0 | 0 | 0 | 2.5 | 0 | 121 | 103 | 112 | 112 | 98.1 | 102 | 106 | 124 | 109 | 100 | 106 | 101 | 99.6 | 98.1 | 92 | 107 | 113 | 89.7 | 114 | 40.6 | 102 | 102 | 98.1 | 99.2 | 91.6 | > 10 | > 10 | > 10 | 4 | > 10 |
| NCc1cc(O)no1 [muscimol] | 0 | 0 | 0 | 0 | 0 | 91.6 | 95.7 | 98.3 | 104 | 97.3 | 94.7 | 96.5 | 98.4 | 99.5 | 103 | 101 | 94.6 | 99.6 | 98.6 | 97.3 | 96.8 | 105 | 97.7 | 98.1 | 94.5 | 98.8 | 97 | 93.1 | 97.1 | 101 | > 10 | > 10 | > 10 | > 10 | > 10 |
| CNS(=O)(=O)CCc1ccc2[nH]cc(C3CCN(C)CC3)c2c1 [naratriptan] | 0 | 0 | 0 | 0 | 0 | 114 | 94.1 | 94.7 | 97 | 107 | 97.5 | 105 | 92.7 | 100 | 105 | 102 | 106 | 99.2 | 99.8 | 95.9 | 102 | 98.2 | 105 | 103 | 108 | 98.9 | 100 | 91.9 | 99.7 | 96.7 | > 10 | > 10 | > 10 | > 10 | > 10 |
| CN1Cc2c(N)cccc2C(c2ccccc2)C1 (stereo not given) [nomifensine] | 0 | 0 | 0 | 0 | 0 | 104 | 98.2 | 100 | 106 | 96.8 | 97.1 | 95 | 98 | 94.6 | 103 | 101 | 100 | 102 | 101 | 96.3 | 106 | 110 | 93.5 | 103 | 97.3 | 97.9 | 96.8 | 94.2 | 99.4 | 110 | > 10 | > 10 | > 10 | > 10 | > 10 |
| O=Cc1cn(Cc2ccc(Cl)cc2)c2ccccc12 [oncrasin-1] | 0 | 0 | 0 | 12.5 | 0 | 94.8 | 100 | 96.2 | 99.8 | 106 | 92.2 | 90.8 | 97.2 | 101 | 98.6 | 97.2 | 96.8 | 102 | 100 | 101 | 101 | 110 | 104 | 40.3 | 1.2 | 90.4 | 102 | 94.1 | 95.9 | 103 | > 10 | > 10 | > 10 | 0.847 | > 10 |
